target: T1, HCV Protease (HCV NS3-4A) (Hepatitis C virus genotype 1a, UniProt P27958); assay: HCV Protease (HCV NS3-4A) anti-activity assay, fluorescence quenching (FRET); format: biochemical
T1 construct: HCV Protease: HCV NS3-4A, self-prepared; made in house
Experimental: Method of HCV Protease (HCV NS3-4A) Anti-Activity Assay:
HCV Protease (HCV NS3/4A) anti-activity was measured by an inter fluorescence quenching system. EDANS group and DABCYL group were bonded on each side of a peptide. When protein cleavage started, fluorescence quenching of EDANS by DABCYL was detected. We used a high throughput screening model for HCV NS3/4A protease inhibitors, the tested drugs were prepared with 5 different concentrations, positive control and negative control were set in the same time. In the optimized reaction system, fluorescence were determined at ex=355, em=520 by a Polarstar fluorescence detector. Calculate the inhibition rate of each concentration; calculate the half maximal inhibitory concentration (IC50) with the method of Reed-Muench.
Materials: HCV Protease: HCV NS3-4A, self-prepared, stored at −70. HCV Protease substrate (FRET-S): Ac-Asp-Glu-Asp(EDANS)-Glu-Glu-Abu-ψ-[COO]-Ala-Ser-Lys-(DABCYL)-NH2, supplied by AnaSpec USA, prepared of 100 μM by DMSO, distributed and stored at −20 without light. Buffer solution: 30 mM NaCl, 5 mM CaCl2, 10 mM DTT, 50 mM Tris (pH7.8).
Instrument: fluorescence detector Polarstar from Germany Company BMG
Preparation and operation: preparation of 10 mg/mL by DMSO, dilute of 10000, 2000, 400, 80, 16 ng/mL as tested concentrations by buffer solutions, adding 20 μL into each well, the total reaction system is 200 μL, to make the final concentrations of 1000, 200, 40, 8, 1.6 ng/mL. Add 140 μL buffer solution, 20 μL drug solution, 20 μL HCV protease, and 20 μL FRET-S substrate with final concentration of 0.25 μM into 96-well fluorescence microtiterplate, the reaction started at 37, set control wells of protease-substrate reaction and of isolate substrate and isolate protease, fluorescence signals were detected by fluorescence detector (ex=355,em=520). Calculate the inhibition rates of samples for each concentration by comparison of fluorescence value of sample in each well and the fluorescence control value of enzyme, calculate the half maximal inhibitory concentration (IC50) of samples to HCV protease with the method of Reed-Muench.
THF and Et2O were distilled from sodium metal and benzophenone. DCM, pentane and hexane were distilled form calcium hydride. Special raw materials and intermediates in the invention were supplied by Zannan SciTech Co. for ordered processing, Ltd. in Shanghai, others reagents were purchased from Shanghai reagent company, Aldrich, Acros etc. If intermediates or products of synthesis were not enough for the next step of reaction, the synthesis shall be repeated until it is sufficient. The HCV protease (HCV NS3-4A) inhibitory activity assays in the present invention were performed by relevant cooperation service units of China Institutes for Biological Science in Beijing.

T1 sequence (P27958 1658-1711): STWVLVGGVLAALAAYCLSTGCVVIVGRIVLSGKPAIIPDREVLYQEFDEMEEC
T1 sequence (P27958 1027-1657): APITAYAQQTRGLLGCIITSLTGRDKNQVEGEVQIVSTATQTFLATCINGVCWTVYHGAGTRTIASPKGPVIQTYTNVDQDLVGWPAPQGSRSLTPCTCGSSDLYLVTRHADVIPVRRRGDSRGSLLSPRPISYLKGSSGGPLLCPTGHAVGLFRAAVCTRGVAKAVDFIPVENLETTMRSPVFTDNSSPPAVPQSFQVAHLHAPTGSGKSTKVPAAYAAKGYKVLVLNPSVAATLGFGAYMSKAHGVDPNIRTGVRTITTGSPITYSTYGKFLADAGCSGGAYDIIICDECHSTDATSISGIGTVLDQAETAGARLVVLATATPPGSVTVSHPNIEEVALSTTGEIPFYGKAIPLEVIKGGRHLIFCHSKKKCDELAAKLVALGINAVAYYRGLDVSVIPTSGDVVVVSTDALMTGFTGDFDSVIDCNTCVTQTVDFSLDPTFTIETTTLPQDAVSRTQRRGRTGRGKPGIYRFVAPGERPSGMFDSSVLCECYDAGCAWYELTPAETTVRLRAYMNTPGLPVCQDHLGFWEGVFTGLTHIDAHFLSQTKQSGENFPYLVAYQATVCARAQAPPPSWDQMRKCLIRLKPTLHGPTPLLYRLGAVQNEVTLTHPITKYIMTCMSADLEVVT

SMILES	IC50 [nM]
C=C[C@H]1C[C@@]1(NC(=O)C1C[C@@H]2CN1C(=O)[C@H](C(C)(C)C)NC(=O)OCC1(CCCCCOc3cccc4c3CN(C4)C(=O)O2)CC1)C(=O)NS(=O)(=O)C1CC1 (stereo partly shown) [Compound 15d]	0.1 to 5
CC[C@H]1C[C@@]1(NC(=O)C1C[C@@H]2CN1C(=O)[C@H](C(C)(C)C)NC(=O)OCCC/C=C/CCOc1cccc3c1CN(C3)C(=O)O2)C(=O)NS(=O)(=O)C1CC1 (stereo partly shown) [Compound 15ap]	0.1 to 5
CC[C@H]1C[C@@]1(NC(=O)C1C[C@@H]2CN1C(=O)[C@H](C(C)(C)C)NC(=O)OCCCCCCCOc1cccc3c1CN(C3)C(=O)O2)C(=O)NS(=O)(=O)C1CC1 (stereo partly shown) [Compound 15x]	0.1 to 5
C=C[C@H]1C[C@@]1(NC(=O)C1C[C@@H]2CN1C(=O)[C@H](C(C)(C)C)NC(=O)OCC/C=C/COc1cccc3c1CN(C3)C(=O)O2)C(=O)NS(=O)(=O)C1CC1 (stereo partly shown) [Compound 15ad]	0.1 to 5
C=CC1CC1(NC(=O)C1CC2CN1C(=O)C(C(C)(C)C)NC(=O)OCCCCCCCCOc1cccc3c1CN(C3)C(=O)O2)C(=O)NS(=O)(=O)C1CC1 (stereo not shown) [Compound 15ac]	0.1 to 5
CCC1CC1(NC(=O)C1CC2CN1C(=O)C(C(C)(C)C)NC(=O)OCC(C)(C)CCCCOc1cccc3c1CN(C3)C(=O)O2)C(=O)NS(=O)(=O)C1CC1 (stereo not shown) [Compound 15u]	0.1 to 5
CC[C@H]1C[C@@]1(NC(=O)C1C[C@@H]2CN1C(=O)[C@H](C(C)(C)C)NC(=O)OCC(C)(C)CCCCOC(=O)c1ccc3c(c1)CN(C3)C(=O)O2)C(=O)NS(=O)(=O)C1CC1 (stereo partly shown) [Compound 15br]	51 to 300
CC[C@H]1C[C@@]1(NC(=O)C1C[C@@H]2CN1C(=O)[C@H](C(C)(C)C)NC(=O)OCCCCCCNC(=O)c1cccc3c1CN(C3)C(=O)O2)C(=O)NS(=O)(=O)C1CC1 (stereo partly shown) [Compound 15bb]	5.1 to 50
C=C[C@H]1C[C@@]1(NC(=O)C1C[C@@H]2CN1C(=O)[C@H](C(C)(C)C)NC(=O)OCCCC/C=C\c1c3c(cc4c1OCO4)CN(C3)C(=O)O2)C(=O)NS(=O)(=O)C1CC1 (stereo partly shown) [Compound 15bu]	0.1 to 5
C=CC1CC1(NC(=O)C1CC2CN1C(=O)C(C(C)(C)C)NC(=O)OCC(C)(C)CC=CCOc1c(OC)ccc3c1CN(C3)C(=O)O2)C(=O)NS(=O)(=O)C1CC1 (stereo not shown) [Compound 15p]	0.1 to 5
CC[C@H]1C[C@@]1(NC(=O)C1C[C@@H]2CN1C(=O)[C@H](C(C)(C)C)NC(=O)OCC1(CCCCCOc3cccc4c3CN(C4)C(=O)O2)CC1)C(=O)NS(=O)(=O)C1CC1 (stereo partly shown) [Compound 15a]	0.1 to 5
C=C[C@H]1C[C@@]1(NC(=O)C1C[C@@H]2CN1C(=O)[C@H](C(C)(C)C)NC(=O)OCC1(CC/C=C/COc3cccc4c3CN(C4)C(=O)O2)CC1)C(=O)NS(=O)(=O)C1CC1 (stereo partly shown) [Compound 15c]	0.1 to 5
C=C[C@H]1C[C@@]1(NC(=O)C1C[C@@H]2CN1C(=O)[C@H](C(C)(C)C)NC(=O)OCC(C)(C)CC/C=C\c1c3c(cc4c1OCO4)CN(C3)C(=O)O2)C(=O)NS(=O)(=O)C1CC1 (stereo partly shown) [Compound 15bv]	0.1 to 5
CC[C@H]1C[C@@]1(NC(=O)C1C[C@@H]2CN1C(=O)[C@H](C(C)(C)C)NC(=O)OCC1(CCCCOc3cccc4c3CN(C4)C(=O)O2)CC1)C(=O)NS(=O)(=O)C1CC1 (stereo partly shown) [Compound 15e]	0.1 to 5
CC[C@H]1C[C@@]1(NC(=O)C1C[C@@H]2CN1C(=O)[C@H](C(C)(C)C)NC(=O)OCCCCCCCOc1ccc3c(c1)CN(C3)C(=O)O2)C(=O)NS(=O)(=O)C1CC1 (stereo partly shown) [Compound 15be]	0.1 to 5
CC[C@H]1C[C@@]1(NC(=O)C1C[C@@H]2CN1C(=O)[C@H](C(C)(C)C)NC(=O)OCC(C)(C)OCCCCOc1cccc3c1CN(C3)C(=O)O2)C(=O)NS(=O)(=O)C1CC1 (stereo partly shown) [Compound 15am]	0.1 to 5
CC[C@H]1C[C@@]1(NC(=O)C1C[C@@H]2CN1C(=O)[C@H](C(C)(C)C)NC(=O)OCCCCCCc1c3c(cc4c1OCO4)CN(C3)C(=O)O2)C(=O)NS(=O)(=O)C1CC1 (stereo partly shown) [Compound 15bx]	0.1 to 5
CC[C@H]1C[C@@]1(NC(=O)C1C[C@@H]2CN1C(=O)[C@H](C(C)(C)C)NC(=O)OCCCCCCOc1cccc3c1CN(C3)C(=O)O2)C(=O)NS(=O)(=O)C1CC1 (stereo partly shown) [Compound 15w]	0.1 to 5
CC[C@H]1C[C@@]1(NC(=O)C1C[C@@H]2CN1C(=O)[C@H](C(C)(C)C)NC(=O)OCC1(C/C=C/COc3cccc4c3CN(C4)C(=O)O2)CC1)C(=O)NS(=O)(=O)C1CC1 (stereo partly shown) [Compound 15f]	0.1 to 5

SMILES	IC50 [nM]
C=C[C@H]1C[C@@]1(NC(=O)C1C[C@@H]2CN1C(=O)[C@H](C(C)(C)C)NC(=O)OCCCC/C=C/COc1c(OC)ccc3c1CN(C3)C(=O)O2)C(=O)NS(=O)(=O)C1CC1 (stereo partly shown) [Compound 15j]	0.1 to 5
C=C[C@H]1C[C@@]1(NC(=O)C1C[C@@H]2CN1C(=O)[C@H](C(C)(C)C)NC(=O)OCCCCCOc1cccc3c1CN(C3)C(=O)O2)C(=O)NS(=O)(=O)C1CC1 (stereo partly shown) [Compound 15af]	0.1 to 5
CCC1CC1(NC(=O)C1CC2CN1C(=O)C(C(C)(C)C)NC(=O)OCC(C)(C)CCCCCNC(=O)c1cccc3c1CN(C3)C(=O)O2)C(=O)NS(=O)(=O)C1CC1 (stereo not shown) [Compound 15bd]	51 to 300
C=C[C@H]1C[C@@]1(NC(=O)C1C[C@@H]2CN1C(=O)[C@H](C(C)(C)C)NC(=O)OCC/C=C/COc1ccc3c(c1)CN(C3)C(=O)O2)C(=O)NS(=O)(=O)C1CC1 (stereo partly shown) [Compound 15bm]	51 to 300
C=CC1CC1(NC(=O)C1CC2CN1C(=O)C(C(C)(C)C)NC(=O)OCCCC=CCOc1ccc3c(c1)CN(C3)C(=O)O2)C(=O)NS(=O)(=O)C1CC1 (stereo not shown) [Compound 15bj]	0.1 to 5
CC[C@H]1C[C@@]1(NC(=O)C1C[C@@H]2CN1C(=O)[C@H](C(C)(C)C)NC(=O)OCCCC/C=C/COc1ccc3c(c1)CN(C3)C(=O)O2)C(=O)NS(=O)(=O)C1CC1 (stereo partly shown) [Compound 15bg]	0.1 to 5
C=C[C@H]1C[C@@]1(NC(=O)C1C[C@@H]2CN1C(=O)[C@H](C(C)(C)C)NC(=O)OCC1(C/C=C/COc3cccc4c3CN(C4)C(=O)O2)CC1)C(=O)NS(=O)(=O)C1CC1 (stereo partly shown) [Compound 15g]	0.1 to 5
CC[C@H]1C[C@@]1(NC(=O)C1C[C@@H]2CN1C(=O)[C@H](C(C)(C)C)NC(=O)OCC(C)(C)CCCCN(C)c1cccc3c1CN(C3)C(=O)O2)C(=O)NS(=O)(=O)C1CC1 (stereo partly shown) [Compound 15cd]	0.1 to 5
C=C[C@H]1C[C@@]1(NC(=O)C1C[C@@H]2CN1C(=O)[C@H](C(C)(C)C)NC(=O)OCC(C)(C)CC/C=C/COc1cccc3c1CN(C3)C(=O)O2)C(=O)NS(=O)(=O)C1CC1 (stereo partly shown) [Compound 15au]	0.1 to 5
CCC1CC1(NC(=O)C1CC2CN1C(=O)C(C(C)(C)C)NC(=O)OCCC=CCOc1c(OC)ccc3c1CN(C3)C(=O)O2)C(=O)NS(=O)(=O)C1CC1 (stereo not shown) [Compound 15m]	5.1 to 50
CC[C@H]1C[C@@]1(NC(=O)C1C[C@@H]2CN1C(=O)[C@H](C(C)(C)C)NC(=O)OCCCCCOc1cccc3c1CN(C3)C(=O)O2)C(=O)NS(=O)(=O)C1CC1 (stereo partly shown) [Compound 15ag]	0.1 to 5
CC[C@H]1C[C@@]1(NC(=O)C1C[C@@H]2CN1C(=O)[C@H](C(C)(C)C)NC(=O)OCC(C)(C)C/C=C/CSc1cccc3c1CN(C3)C(=O)O2)C(=O)NS(=O)(=O)C1CC1 (stereo partly shown) [Compound 15cb]	0.1 to 5
CC[C@H]1C[C@@]1(NC(=O)C1C[C@@H]2CN1C(=O)[C@H](C(C)(C)C)NC(=O)OCCCCCCOC(=O)c1ccc3c(c1)CN(C3)C(=O)O2)C(=O)NS(=O)(=O)C1CC1 (stereo partly shown) [Compound 15bq]	51 to 300
CC[C@H]1C[C@@]1(NC(=O)C1C[C@@H]2CN1C(=O)[C@H](C(C)(C)C)NC(=O)OCCCC/C=C\c1c3c(cc4c1OCO4)CN(C3)C(=O)O2)C(=O)NS(=O)(=O)C1CC1 (stereo partly shown) [Compound 15bw]	0.1 to 5
CC[C@H]1C[C@@]1(NC(=O)C1C[C@@H]2CN1C(=O)[C@H](C(C)(C)C)NC(=O)OCC(C)(C)C/C=C/COc1cccc3c1CN(C3)C(=O)O2)C(=O)NS(=O)(=O)C1CC1 (stereo partly shown) [Compound 15ar]	0.1 to 5
C=C[C@H]1C[C@@]1(NC(=O)C1C[C@@H]2CN1C(=O)[C@H](C(C)(C)C)NC(=O)OCC/C=C/COc1c(OC)ccc3c1CN(C3)C(=O)O2)C(=O)NS(=O)(=O)C1CC1 (stereo partly shown) [Compound 15n]	0.1 to 5
C=C[C@H]1C[C@@]1(NC(=O)C1C[C@@H]2CN1C(=O)[C@H](C(C)(C)C)NC(=O)OCC(C)(C)OC/C=C/COc1cccc3c1CN(C3)C(=O)O2)C(=O)NS(=O)(=O)C1CC1 (stereo partly shown) [Compound 15ah]	0.1 to 5
C=C[C@H]1C[C@@]1(NC(=O)C1C[C@@H]2CN1C(=O)[C@H](C(C)(C)C)NC(=O)OCC(C)(C)OCCCCOc1cccc3c1CN(C3)C(=O)O2)C(=O)NS(=O)(=O)C1CC1 (stereo partly shown) [Compound 15ak]	0.1 to 5

— patent publication US8962810B2, “Macrocyclic heterocyclic compound for inhibiting hepatitis C virus and preparation and use thereof” (AB Pharma Ltd., priority 2011, dated 2015)
